For the assay, the target named is T1, p38 MAP kinase (Homo sapiens, UniProt Q16539).
T1 construct: made in house; host or cells: E. coli (co-expressed with SEK-1 and MEKK)
The experiment in a line: Inhibition of p-38 (MAP) kinase in vitro assay (transfer of γ-33P from ATP to Myelin Basic Protein). Type of assay: biochemical. To be noted: phosphorylated recombinant p38 MAP kinase, MBP substrate, γ-33P-ATP, 30° C.; read-out: p-38 inhibitory activity, IC50. Here is the method: Inhibition Of p-38 (MAP) Kinase . . . In Vitro Assay
The p-38 MAP kinase inhibitory activity of compounds of this invention in vitro was determined by measuring the transfer of the γ-phosphate from γ-^33P-ATP by p-38 kinase to Myelin Basic Protein (MBP), using the a minor modification of the method described in Ahn, N. G.; et al. J. Biol. Chem. Vol. 266(7), 4220-4227, (1991).
The phosphorylated form of the recombinant p38 MAP kinase was expressed with SEK-1 and MEKK in E. Coli and then purified by affinity chromatography using a Nickel column.
The phosphorylated p38 MAP kinase was diluted in kinase buffer (20 mM 3-(N-morpholino)propanesulfonic acid, pH 7.2, 25 mM β-glycerol phosphate, 5 mM ethylene glycol-bis (beta-aminoethyl ether)-N,N,N′,N′-tetraacetic acid, 1 mM sodium vanadate, 1 mM dithiothreitol, 40 mM magnesium chloride). Test compound dissolved in DMSO or only DMSO (control) was added and the samples were incubated for 10 min at 30° C. The kinase reaction was initiated by the addition of a substrate cocktail containing MBP and γ-^33P-ATP. After incubating for an additional 20 min at 30° C., the reaction was terminated by adding 0.75% phosphoric acid. The phosphorylated MBP was then separated from the residual γ-^33P-ATP using a phosphocellulose membrane (Millipore, Bedford, Mass.) and quantitated using a scintillation counter (Packard, Meriden, Conn.).
Compounds of the invention were active in this assay. The p-38 inhibitory activities (expressed as IC50, the concentration causing 50% inhibition of the p-38 enzyme being assayed) of some compounds of the invention are: […]

Our source for the IC50 values is US6696471B2, “Aminopyrrole compounds” (Syntex (U.S.A.) LLC, priority 2001, dated 2004).

One may read the IC50 as the midpoint of a concentration-inhibition curve.

T1 sequence (Q16539 whole entry): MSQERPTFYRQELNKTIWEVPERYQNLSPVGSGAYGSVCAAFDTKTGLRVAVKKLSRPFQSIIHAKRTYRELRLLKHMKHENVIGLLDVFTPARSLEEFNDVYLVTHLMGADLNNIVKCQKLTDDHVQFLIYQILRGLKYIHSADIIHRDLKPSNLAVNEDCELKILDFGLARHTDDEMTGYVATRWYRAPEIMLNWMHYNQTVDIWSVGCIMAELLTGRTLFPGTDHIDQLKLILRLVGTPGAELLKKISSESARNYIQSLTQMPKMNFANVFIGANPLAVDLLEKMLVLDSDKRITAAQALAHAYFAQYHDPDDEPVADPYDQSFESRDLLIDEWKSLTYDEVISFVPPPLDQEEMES

Regarding `COc1cccc(C(=O)c2cc(-c3cccnc3)n(-c3ccc(F)cc3)c2N)c1` [Cpd 2], the IC50 was 0.169 µM.
For `Nc1c(C(=O)c2cccc(O)c2)cc(-c2cccnc2)n1-c1ccc(F)cc1` [Cpd 3], the IC50 is 0.468 µM.
To `Nc1c(C(=O)c2ccccc2)cc(-c2cccnc2)n1-c1ccc(F)cc1` [Cpd 1] belongs 0.164 µM; to `Nc1c(C(=O)c2cccc(OC[C@H](O)CO)c2)cc(-c2cccnc2)n1-c1ccc(F)cc1` [Cpd 4], 0.12 µM.
